Assay results as given in patent US9150575B2, “Piperidinylpyrazolopyridine derivative” (Daiichi Sankyo Company, Limited, priority 2012, dated 2015).
Structures can show the parent of a compound that is named as a salt.

How the values were obtained:
LCAT = target: T1, LCAT (Homo sapiens, UniProt P04180); experiment: LCAT Activity Measurement (In Vitro); type: biochemical; conditions: EC50 of LCAT activation; HDL3 fraction from plasma of a healthy person as enzyme source and acceptor; [14C]cholesterol; 37° C., approximately 16 hours
T1 construct: The obtained fraction was dialyzed against phosphate-buffered saline (pH 7.4) and used as an enzyme source and an acceptor for LCAT; from tissue; host or cells: HDL3 fraction (1.125<specific gravity<1.210 g/mL) of plasma from a healthy person
T1 sequence (P04180 25-440): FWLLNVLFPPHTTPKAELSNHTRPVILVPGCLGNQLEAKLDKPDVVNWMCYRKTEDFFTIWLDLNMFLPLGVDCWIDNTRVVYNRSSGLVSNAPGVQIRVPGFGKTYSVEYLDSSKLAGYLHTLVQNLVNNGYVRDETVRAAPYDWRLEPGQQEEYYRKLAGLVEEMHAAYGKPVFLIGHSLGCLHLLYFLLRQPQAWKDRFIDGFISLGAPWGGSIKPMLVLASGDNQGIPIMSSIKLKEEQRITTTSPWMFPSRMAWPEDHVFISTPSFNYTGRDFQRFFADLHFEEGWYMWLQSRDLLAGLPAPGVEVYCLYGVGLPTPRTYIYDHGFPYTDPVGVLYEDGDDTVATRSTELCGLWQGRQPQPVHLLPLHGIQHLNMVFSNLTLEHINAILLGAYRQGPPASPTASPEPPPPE
How it was run: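 Human plasma HDL3 (1 mg/mL, PBS pH 7.4) served as enzyme and acceptor with [14C]cholesterol, 0.5 mM DTNB, 12.5 mM mercaptoethanol and 0.6% BSA; compounds in DMSO, incubated ~16 h at 37 °C. Cholesterol oleate radioactivity quantified after extraction and TLC; EC50 of activation fitted relative to no-drug control.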

cynomolgus monkey = experiment: Drug Efficacy Test in Cynomolgus Monkeys; type: in vivo; conditions: oral, single dose of 10 mg/kg, compared with before administration, from AUC before administration and 24 hours after administration
Experimental: Each test drug was dissolved in a propylene glycol (Sigma-Aldrich Corp.)-Tween 80 (Sigma-Aldrich Corp.) mixed solution [4/1 (v/v)] or a 0.5% (w/v) methylcellulose aqueous solution, and the solution was orally administered to a cynomolgus monkey for 1 or 7 days. At 1 or 7 day of administration period, blood was collected before administration and after administration, and plasma was obtained. The content of cholesterol in the plasma was measured using a commercially available assay kit (Cholesterol-E Wako, Wako Pure Chemical Industries, Ltd.). The lipoprotein profile was analyzed by HPLC (column: LipopropakXL, manufactured by Tosoh Corp.). The contents of HDL cholesterol and non-HDL cholesterol were calculated according to the following calculation expression: Content of HDL cholesterol=Content of cholesterol in the plasma×(Peak area of HDL cholesterol/Total sum of peaks) Content of non-HDL cholesterol=Content of cholesterol in the plasma×(Peak area of non-HDL cholesterol/Total sum of peaks)
The rate (%) of increase in HDL level after the administration of a single dose of 10 mg/kg compared with before administration was determined from AUC before administration and 24 hours after administration.

EC50 (LCAT)	Compound	Rate of increase in HDL level after administration of single dose (cynomolgus monkey)
48 nM	O=C1CC(O)(C(F)(F)F)c2c(C3CCN(c4cccc(C(F)(F)F)n4)CC3)n[nH]c2N1 (stereo not shown) [Example 7, 4-Hydroxy-4-(trifluoromethyl)-3-{1-[6-(trifluoromethyl)pyridin-2-yl]piperidin-4-yl}-1,4,5,7-tetrahydro-6H-pyrazolo[3,4-b]pyridin-6-one]	334%
45 nM	O=C1CC(O)(C(F)(F)F)c2c(C3CCN(c4ccc(Cl)cn4)CC3)n[nH]c2N1 (single isomer, unassigned; (-)) [Compound 50-1, (−)-3-[1-(5-Chloropyridin-2-yl)piperidin-4-yl]-4-hydroxy-4-(trifluoromethyl)-1,4,5,7-tetrahydro-6H-pyrazolo[3,4-b]pyridin-6-one]	433%
45 nM	O=C1CC(O)(C(F)(F)F)c2c(C3CCN(c4ccc(OC(F)F)cc4)CC3)n[nH]c2N1 (single isomer, unassigned; (-)) [Compound 56-1, (−)-3-{1-[4-(Difluoromethoxy)phenyl]piperidin-4-yl}-4-hydroxy-4-(trifluoromethyl)-1,4,5,7-tetrahydro-6H-pyrazolo[3,4-b]pyridin-6-one]	644%
21 nM	O=C1CC(O)(C(F)(F)F)c2c(C3CCN(c4ccc(C(F)(F)F)cn4)CC3)n[nH]c2N1 (stereo not shown) [Example 8, 4-Hydroxy-4-(trifluoromethyl)-3-{1-[5-(trifluoromethyl)pyridin-2-yl]piperidin-4-yl}-1,4,5,7-tetrahydro-6H-pyrazolo[3,4-b]pyridin-6-one]	531%
210 nM	O=C1CC(O)(C(F)(F)F)c2c(C3CCN(c4ncc(C(F)(F)F)cc4Cl)CC3)n[nH]c2N1 (stereo not shown) [Example 10, 3-{1-[3-Chloro-5-(trifluoromethyl)pyridin-2-yl]piperidin-4-yl}-4-hydroxy-4-(trifluoromethyl)-1,4,5,7-tetrahydro-6H-pyrazolo[3,4-b]pyridin-6-one]	526%
330 nM	CN(C)c1ncc(N2CCC(c3n[nH]c4c3C(O)(C(F)(F)F)CC(=O)N4)CC2)cn1 (stereo not shown) [Example 67, 3-{1-[2-(Dimethylamino)pyrimidin-5-yl]piperidin-4-yl}-4-hydroxy-4-(trifluoromethyl)-1,4,5,7-tetrahydro-6H-pyrazolo[3,4-b]pyridin-6-one]	–
75 nM	O=C1CC(O)(C(F)(F)F)c2c(C3CCN(c4ccc(C5CC5)cn4)CC3)n[nH]c2N1 (stereo not shown) [Example 99, 3-[1-(5-Cyclopropylpyridin-2-yl)piperidin-4-yl]-4-hydroxy-4-(trifluoromethyl)-1,4,5,7-tetrahydro-6H-pyrazolo[3,4-b]pyridin-6-one]	–
21 nM	N#Cc1cc(N2CCC(c3n[nH]c4c3C(O)(C(F)(F)F)CC(=O)N4)CC2)ccc1OC(F)F (stereo not shown) [Example 60, 2-(Difluoromethoxy)-5-{4-[4-hydroxy-6-oxo-4-(trifluoromethyl)-4,5,6,7-tetrahydro-1H-pyrazolo[3,4-b]pyridin-3-yl]piperidin-1-yl}benzonitrile]	–
270 nM	CN(C)C(=O)c1cc(N2CCC(c3n[nH]c4c3C(O)(C(F)(F)F)CC(=O)N4)CC2)ncc1C(F)(F)F (stereo not shown) [Example 84, 2-{4-[4-Hydroxy-6-oxo-4-(trifluoromethyl)-4,5,6,7-tetrahydro-1H-pyrazolo[3,4-b]pyridin-3-yl]piperidin-1-yl}-N,N-dimethyl-5-(trifluoromethyl)pyridine-4-carboxamide]	–
31 nM	O=C1CC(O)(C(F)(F)F)c2c(C3CCN(c4cnc(OC(F)F)c(OC(F)F)c4)CC3)n[nH]c2N1 (stereo not shown) [Example 63, 3-{1-[5,6-bis(Difluoromethoxy)pyridin-3-yl]piperidin-4-yl}-4-hydroxy-4-(trifluoromethyl)-1,4,5,7-tetrahydro-6H-pyrazolo[3,4-b]pyridin-6-one]	–
760 nM	CN(C)c1ccc(N2CCC(c3n[nH]c4c3C(O)(C(F)(F)F)CC(=O)N4)CC2)cn1 (stereo not shown) [Example 68, 3-{1-[6-(Dimethylamino)pyridin-3-yl]piperidin-4-yl}-4-hydroxy-4-(trifluoromethyl)-1,4,5,7-tetrahydro-6H-pyrazolo[3,4-b]pyridin-6-one]	–
250 nM	O=C1CC(O)(C(F)(F)F)c2c(C3CCN(c4ccc(F)cn4)CC3)n[nH]c2N1 (stereo not shown) [Example 15, 3-[1-(5-Fluoropyridin-2-yl)piperidin-4-yl]-4-hydroxy-4-(trifluoromethyl)-1,4,5,7-tetrahydro-6H-pyrazolo[3,4-b]pyridin-6-one]	–
101 nM	CC(C)Oc1ccc(N2CCC(c3n[nH]c4c3C(O)(C(F)(F)F)CC(=O)N4)CC2)nn1 (stereo not shown) [Example 18, 4-Hydroxy-3-{1-[6-(propan-2-yloxy)pyridazin-3-yl]piperidin-4-yl}-4-(trifluoromethyl)-1,4,5,7-tetrahydro-6H-pyrazolo[3,4-b]pyridin-6-one hydrochloride]	–
260 nM	CCOc1ccc(N2CCC(c3n[nH]c4c3C(O)(C(F)(F)F)CC(=O)N4)CC2)cc1 (stereo not shown) [Example 59, 3-[1-(4-Ethoxyphenyl)piperidin-4-yl]-4-hydroxy-4-(trifluoromethyl)-1,4,5,7-tetrahydro-6H-pyrazolo[3,4-b]pyridin-6-one]	–
84 nM	CN(C)c1nc(N2CCC(c3n[nH]c4c3C(O)(C(F)(F)F)CC(=O)N4)CC2)cc(C(F)(F)F)n1 (stereo not shown) [Example 93, 3-{1-[2-(Dimethylamino)-6-(trifluoromethyl)pyrimidin-4-yl]piperidin-4-yl}-4-hydroxy-4-(trifluoromethyl)-1,4,5,7-tetrahydro-6H-pyrazolo[3,4-b]pyridin-6-one]	–
68 nM	O=C1CC(O)(C(F)(F)F)c2c(C3CCN(c4cnc(C5CC5)nc4)CC3)n[nH]c2N1 (stereo not shown) [Example 66, 3-[1-(2-Cyclopropylpyrimidin-5-yl)piperidin-4-yl]-4-hydroxy-4-(trifluoromethyl)-1,4,5,7-tetrahydro-6H-pyrazolo[3,4-b]pyridin-6-one]	–

Compound	EC50 (LCAT)	Rate of increase in HDL level after administration of single dose (cynomolgus monkey)
O=C1CC(O)(C(F)(F)F)c2c(C3CCN(c4ccc(OC5CCC5)nc4)CC3)n[nH]c2N1 (stereo not shown) [Example 61, 3-{1-[6-(Cyclobutoxy)pyridin-3-yl]piperidin-4-yl}-4-hydroxy-4-(trifluoromethyl)-1,4,5,7-tetrahydro-6H-pyrazolo[3,4-b]pyridin-6-one]	100 nM	–
